Measured values reported in US10391070B2, “Compositions and methods for treating neurological diseases or injury” (MUSC FOUNDATION FOR RESEARCH DEVELOPMENT, priority 2012, dated 2019).
Read-outs that look alike come from different tables or passages of the source.

Columns and labels:
[1] = test system: zebrafish larvae; test: Zebrafish larval toxicity (NOEC, lethal dose); format: in vivo; details: 7 dpf zebrafish larvae; for Lethal dose: up to 5 h treatment; for Highest concentration tested for anti-seizure activity: highest sub-lethal dose
Experimental: Using a 96-well plate, one zebrafish larva (7 dpf) was placed in each well in 100 μL of tank water (TW). 100 μL of each compound (0.5-15 μM) was then added to each well for 12 animals (one row) to give a final volume of 200 […]. A control row was tested for DMSO toxicity effects. […] Each drug was assessed for the no observed effect concentration (NOEC), the highest non-lethal dose resulting in no apparent toxic effects.
Zebrafish (AB strain) were obtained from the Zebrafish International Resource Center (supported by P40 RR012546 from NIH-NCRR). Zebrafish were maintained and crossed according to standard methods (Westerfield, 2000). Fertilized eggs were collected and placed in E3 embryo medium and positioned in an incubator set at 28.5° C. with a 14/10 h light/dark cycle (Kimmel et al., 1995). To determine the lethal dose of each compound, 96-well plates containing one zebrafish (7 days post-fertilization, dpf) per well in 100 μL of tank water were used. 100 μL of each compound (0.5 to 15 μM) was added to each well for 12 animals (one row) for a final volume of 200 μL. One row of larvae was used as DMSO only controls. […] All zebrafish studies were approved by the Medical University of South Carolina Institutional Animal Care and Use Committee (AR #2850) and performed in accordance with the guidelines.
Using a 96-well plate, one zebrafish larva (7 dpf) was placed in each well in 100 μL of tank water. 100 μL of each compound was then added to each well for 12 animals (one row) for a final volume of 200 μL. One row of zebrafish larvae was used as DMSO only controls. […] Toxicity was also measured in the mouse model by the NIH Anticonvulsant Screening Program at the National Institute of Neurological Disorders and Stroke (Stables and Kupferberg, 1997), according to the established NIH experimental procedures. Compounds were delivered into mice by intraperitoneal (i.p.) injection at a dose of 100 mg/kg in sterile 5% DMSO, 95% Neobee (Josey et al., 2013). Acute toxicity was assessed by monitoring the animals for impaired neuromuscular function by placing treated mice on a rod rotating at 6 rpm. […]

[2] = test system: PTZ-induced seizures; test: PTZ-induced seizure (swim activity) model in zebrafish larvae; format: in vivo, zebrafish (Danio rerio); details: for Seizure suppression: PTZ-treated zebrafish larvae, pretreated 1 hr at NOEC
Experimental: The DanioVision locomotion tracking instrument with Ethovision XT software (Noldus) was used to measure the severity of the seizures by quantifying the locomotor activity of each fish.
In a 48-well plate, one 6-7 dpf larva was added per well. Compounds were given at a sub-lethal dose and treated for 1 h. Three control rows were included—tank water (TW) only, PTZ only and PTZ+VPA (2-4 mM final concentration of VPA). […] After 5 min, the plate was transferred to the Daniovision apparatus and the chamber light was turned on. After 2 min, Ethovision was used to determine the distance traveled (a marker of seizure of activity) by each fish for 15 min (25 frames per second). Velocity, duration of movement, and frequency of movement were also determined from the same recording. After measurement, fish were monitored visually for survival. The distance moved over the recording period with Ethovision XT software (Noldus) was averaged over 8 wells per treatment unless the fish was not detected.
In a 48-well plate, one 7 dpf zebrafish was added per well. Larvae were dosed with each compound at a sub-lethal dose 1 h prior to PTZ treatment. Three control rows were included with each experiment—tank water only control, PTZ only and PTZ+VPA (4 mM final concentration of VPA). […] After 5 min, the plate was transferred to the Daniovision instrument (Noldus Information Technology) and the chamber light was turned on. After 2 min, MediaRecorder (Noldus) was used to record video for 15 min. A small number of videos were acquired 25 frames per second, but the majority of the data was acquired at the frame rate of 60 frames per second. After recording, fish were monitored visually for survival. Ethovision XT software (Noldus) was used to track the fish movement from the video images in order to calculate the total distance traveled over 15 min. […] All experimental comparisons were made between animals from the same clutch.

[3] = test system: HT22 cells; test: In vitro neuroprotective activity against glutamate-induced cell death (MTS cell viability); format: cell-based, mouse; details: HT22 cells; for EC50: Mus musculus, HT-22, 10 mM glutamate, 24 hrs, MTS, concentration producing 50% protection, read-out: Protection PC50
Experimental: (§1) The HT22 neuronal cell line is a subclone of HT4, derived from the mouse hippocampus (Morimoto and Koshland, 1990). […] HT22 cells were used. The cells were grown in Dulbecco's Modified Eagle's medium (DMEM/high glucose) supplemented with 10% fetal bovine serum (Hyclone) and 5 mL Antibiotic-Antimycotic (Amphotericin B, Penicillin, and Streptomycin; Invitrogen) at 37° C. in 5% CO2.
(§2) Cell viability was assessed by the ability of the viable cells to metabolize 3-(4,5-dimethylthiazol-2-yl)-5-(3-carboxymethoxyphenyl)-2(4-sulfophenyl)2-H-tetrazolium, inner salt (MTS), as described previously (Cory et al., 1991). The metabolism of tetrazolium salts is often used to measure cellular proliferation, but in the system used here, it has been previously shown to correlate well with cell viability as determined by trypan blue exclusion and colony-forming assays (Davis and Maher, 1994). Briefly, HT-22 cells were seeded onto 96-well plates at 5.0×10^3 cells per well in 75 μL of medium and maintained at 37° C. in 5% CO2 overnight prior to the initiation of experimental treatments. For glutamate toxicity testing, cells were subsequently treated with 25 μL of medium containing glutamate (monosodium glutamate, Sigma, 1 M stock concentration in media, to achieve a final concentration of 10 mM) plus inhibitors (stock in DMSO) and maintained at 37° C. in 5% CO2. For t-BuOOH toxicity testing, cells were subsequently treated with 25 μL of medium containing t-BuOOH (Sigma, 10 mM stock concentration, to achieve a final concentration of 50 μM) plus inhibitors (stock in DMSO) and maintained at 37° C. in 5% CO2 for 3 hours, after which the media was removed, cells washed gently with HBSS, the media replaced with standard culture media, and the cells returned to incubation at 37° C. in 5% CO2. For both glutamate and t-BuOOH treatments, 10 μl of MTS solution was added to each well 24 hrs after initial treatment, and the cells were maintained in growth medium for 2 h at 37° C. Absorbance at 490 nm was subsequently measured by a SpectraMax 190 plate reader (Molecular Devices). The growth medium without cells in the presence of MTS solution was used as solution background and untreated cells were considered the controls. Cell viability was calculated as a percentage compared with untreated controls. EC50 determinations were based on 12-point titrations using GraphPad Prism, and each experiment was repeated at least four times. Morphology of HT22 cells following treatments was determined by phase-contrast microscopy. Digital images of cells grown on cell culture plates were captured at 10× magnification.
The neuroprotective properties of VK and its derivatives were estimated through their protective effects against cell death in mouse neuronal HT22 cells induced by exposure to high levels of glutamate, which recapitulates a hallmark of the extracellular environment found in several neurodegenerative diseases and CNS injuries and is a well established model of neuronal oxidative stress. This investigation began by comparing the relative abilities of the two predominant naturally occurring forms of VK, VK1 and VK2, to prevent oxidative cell death. […] Several 1,4-naphthoquinones with various substitutions at the 2′ and 3′ positions were tested to determine the minimum structural requirement of the system and what the optimum scaffold for future developmental efforts and biological validation would be (FIG. 1B and Table 1). […] Substitution by a single methyl group at the 2′ position (VK3) improves the compound's ability to protect against cell death. Various other simple substituents at the 2′ and 3′ positions give the naphthoquinone structure the ability to prevent oxidative cell death at nanomolar concentrations (Table 1 and FIG. 16).

[4] = In vitro neurotoxicity without glutamate (MTS cell viability); format: cell-based, mouse; details: mouse, HT22 cells without glutamate, 24 hrs, MTS, concentration producing 50% toxicity, read-out: Toxicity TC50
Experimental: as §1, §2

[5] = test system: HT22 cells; test: as above; format: cell-based, mouse; details: for Safety Index TC50/PC50: HT22 cells
Experimental: as §1, §2

[6] = HT22 neuronal cells (without glutamate)

| SMILES | Lethal dose [1] [mM] | Highest concentration tested for anti-seizure activity [1] [mM] | Seizure suppression [2] | EC50 [3] [nM] | CC50 at 24 h [4, 6] [nM] | Safety Index TC50/PC50 [5] | also measured |
| --- | --- | --- | --- | --- | --- | --- | --- |
| CCCC(CCC)C(=O)NO [2-propylpentane hydroxamic acid (VPHA), 2-propylpentane hydroxamic acid] | >0.05 | 0.05 | No |  |  |  |  |
| O=C(NC1=CC(=O)c2ccccc2C1=O)c1ccc(Cl)cc1 [Compound 3i, 4-chloro-N-(1,4-dioxo-1,4-dihydronaphthalen-2-yl)benzamide] |  |  |  | 405 | 27000 | 67 |  |
| O=C(NC1=CC(=O)c2ccccc2C1=O)c1cccc(Cl)c1 [Compound 3j, 3-chloro-N-(1,4-dioxo-1,4-dihydronaphthalen-2-yl)benzamide] |  |  |  | 492 | > 100000 | 203 |  |
| O=C(Cc1ccccc1)NC1=CC(=O)c2ccccc2C1=O [Compound 3k, N-(1,4-dioxo-1,4-dihydronaphthalen-2-yl)-2-phenylacetamide] |  |  |  | 658 |  | 49 | CC50 at 24 h [4]: 32000 nM |
| O=C(Cc1ccc(-c2ccccc2)cc1)NC1=CC(=O)c2ccccc2C1=O [Compound 3l, 2-([1,1′-biphenyl]-4-yl)-N-(1,4-dioxo-1,4-dihydronaphthalen-2-yl)acetamide] |  |  |  | 890 | 42000 | 47 |  |
| CCNC(=O)NC1=CC(=O)c2ccccc2C1=O [Compound 4a, 1-(1,4-dioxo-1,4-dihydronaphthalen-2-yl)-3-ethylurea] |  |  |  | 177 |  | 28 | CC50 at 24 h [4]: 5000 nM |
| CC(C)NC(=O)NC1=CC(=O)c2ccccc2C1=O [Compound 4b, 1-(1,4-dioxo-1,4-dihydronaphthalen-2-yl)-3-isopropylurea] |  |  |  | 64 | 8000 | 125 |  |
| O=C(NC1=CC(=O)c2ccccc2C1=O)Nc1ccccc1 [Compound 4c, 1-(1,4-dioxo-1,4-dihydronaphthalen-2-yl)-3-phenylurea] |  |  |  | 890 | > 100000 | 112 |  |
| O=C(NCc1ccccc1)NC1=CC(=O)c2ccccc2C1=O [Compound 4d, 1-benzyl-3-(1,4-dioxo-1,4-dihydronaphthalen-2-yl)urea] |  |  |  | 740 |  | 135 | CC50 at 24 h [4]: > 100000 nM |
| O=C(NO)C(c1ccccc1)c1ccccc1 [Diphenyl acetic hydroxamic acid (dPAHA), diphenyl acetic hydroxamic acid] | 0.01 | 0.0075 | No |  |  |  |  |
| O=C(CCCCCCC(=O)Nc1ccccc1)NO [Suberoylanilide hydroxamic acid (SAHA), suberoylanilide hydroxamic acid] | >0.015 | 0.015 | No |  |  |  |  |
| CN1CCc2c(c3ccccc3n2Cc2ccc(C(=O)NO)cc2)C1 [Tubastatin A (Tub A), Tubastatin A] | >0.012 | 0.012 | No |  |  |  |  |
| CC1=C(C/C=C(\C)CCC[C@H](C)CCC[C@H](C)CCCC(C)C)C(=O)c2ccccc2C1=O [VK1, phylloquinone, reference compound] |  |  |  |  |  |  | protection from oxidative cell death ([3]; glutamate): rescued HT22 cells from oxidative cell death; cellular toxicity [5]: neither exhibited any signs of cellular toxicity; reduction of seizures ([2]; PTZ-treated 6 dpf zebrafish, up to 100 mM): neither were found to reduce seizures |
